Laboratory results as given in US11903935B2, “Inhibitors of SARM1 NADase activity and uses thereof” (Washington University, priority 2016, dated 2024).
One block for each compound: values may come before it.

Experiments:
SARM1 TIR [1] = target: T1, SARM1 TIR (Homo sapiens (Human), UniProt Q6SZW1); assay: NADase assay with purified bacterial hSARM1-TIR, enzyme inhibition studies; type: biochemical; conditions: 1 mM in the reaction mixture, 5 min
Target sequence in this assay (Q6SZW1 other isoform, or with tags, fused parts or gaps): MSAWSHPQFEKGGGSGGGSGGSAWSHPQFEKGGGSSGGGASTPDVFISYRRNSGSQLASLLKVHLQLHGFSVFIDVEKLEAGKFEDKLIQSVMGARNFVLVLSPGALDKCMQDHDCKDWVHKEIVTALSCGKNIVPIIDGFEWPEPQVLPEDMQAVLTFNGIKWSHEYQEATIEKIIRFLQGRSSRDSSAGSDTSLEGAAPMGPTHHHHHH
Description: Ten microliters of beads incubated with the indicated cell lysate were incubated with 5 μM NAD in reaction buffer (92.4 mM NaCl and 0.64×PBS). Reactions were carried out at 25° C. for the indicated amount of time and stopped by addition of 1M of perchloric acid (HClO4) and placing the tube on ice. NAD+ metabolites were extracted using HClO4/K2CO3 method and quantified by HPLC (see HPLC for metabolite measurement).
Metabolites were isolated from enzyme reaction mixture by extracting with 1M HClO4, then neutralized with 3M K2CO3, and followed by separation by centrifugation. The supernatant (90 μL) containing the extracted metabolites was mixed with 0.5M Potassium Phosphate buffer (10 μL) and metabolites were analyzed by HPLC (Nexera X2) with Kinetex (100×3 mm, 2.6 μm; Phenomenex) column. […] The levels for each compound in each experimental sample were normalized to the 0 min time point that was analyzed concurrently.
The reaction was stopped after 5 min and NAD+ metabolites were extracted by the perchloric acid method and measured by HPLC as indicated above.

SARM1 SAM-TIR lysate = SARM1 SAM-TIR lysate (Homo sapiens (Human), UniProt Q6SZW1); assay: Luminescence-based NAD+ Glo (NAD+ cycling) assay with SAM-TIR lysate; type: biochemical
SARM1 SAM-TIR lysate, sequence (Q6SZW1 other isoform, or with tags, fused parts or gaps): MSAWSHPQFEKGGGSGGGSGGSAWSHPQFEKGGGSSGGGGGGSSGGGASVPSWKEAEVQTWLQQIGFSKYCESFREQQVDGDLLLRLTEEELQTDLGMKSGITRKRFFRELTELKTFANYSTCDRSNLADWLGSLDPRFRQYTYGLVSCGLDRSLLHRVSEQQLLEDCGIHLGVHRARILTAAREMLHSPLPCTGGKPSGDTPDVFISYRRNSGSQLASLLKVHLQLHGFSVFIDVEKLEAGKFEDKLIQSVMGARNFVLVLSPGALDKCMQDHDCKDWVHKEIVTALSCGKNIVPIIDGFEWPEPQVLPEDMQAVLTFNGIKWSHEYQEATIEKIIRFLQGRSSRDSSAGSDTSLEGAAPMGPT
Excerpt: Luminescence-based assay. This assay can complement the results obtained by HPLC, and can permit a higher throughput of compound library screening than is possible with HPLC methods. This assay is an adaptation of the NAD+/NADH-GLO™ assay (Promega G9071, Promega Corporation, Madison, WI). In this assay, NAD+ cycling enzymes convert NAD+ into NADH. In the presence of NADH, the reductase enzymatically converts a pro-luciferin reductase substrate into luciferin. Luciferin is detected using ULTRA-GLO™ rLuciferase, and the chemiluminescence intensity is proportional to the amount of NAD+ and NADH in the sample. Under the present assay conditions, the amount of NAD+ and NADH present in the lysate is undetectable with this assay, precluding any endogenous contribution to the final NAD+ detected. The assay was set up as follows: 2 μl candidate inhibitor (final concentration 1 μM, 2% DMSO), 0.07 μg lysate (2 μl), and 2 μl of 400 nM NAD+. The reaction was incubated at 37° C. for 60 min, then 6 μl NAD+/NADH-GLO™ detection reagent was added. After 30 min at room temperature, the luminescent signals were quantified using a CYTATION™ 5 imaging reader (BIOTEK®).

SARM1 TIR [2] = target: T1, SARM1 TIR; assay: SARM1 TIR-based assay (bacterially expressed, tagged SARM1 TIR fragment on beads); type: biochemical; conditions: compound at 5 μM, 5 μM NAD+
Excerpt: The present Example describes a SARM1 TIR-based Assay. This assay is similar to the assay described in Example 1, but allows for the identification and/or characterization of compounds that directly interact with the TIR domain, whereas the assay described in Example 1 can also identify compounds that disrupt SAM domain interactions. This assay makes use of the bacterial expression of a tagged version of the SARM1 TIR fragment that can be affinity purified. Displaying this artificial SARM1 TIR domain on a solid surface (i.e. affinity beads) generates an active NAD+ cleavage enzyme.
The TIR domain of SARM1 was tagged with a tandem STREP-TAG® at the N-terminus, and a polyhistidine tag at the C-terminus, and was cloned into a pET30a+ plasmid. The construct was then transformed into SHuffle® T7 Express Competent E. coli (New England BioLabs, Ipswich, MA) and single colonies were grown overnight. The next day, cultures were diluted in LB media, grown at 30° C. until they reached A600=0.4-0.8, when IPTG (0.5 mM final concentration) was added. The bacteria were grown for an additional 4 h, pelleted by centrifugation, washed with PBS and stored at −80° C. For protein purification, the frozen bacterial pellet was thawed on ice, resuspended in binding buffer (without protease inhibitors) and incubated with 100 μg/mL lysozyme for 15 min on ice. Protease inhibitor cocktail was then added and the cells were lysed by sonication.
The SARM1 TIR protein was first purified by Strep Tag affinity methods where bacterial lysates were incubated with […] (STREP-TACTIN®, IBA GmBH, Gottingen Germany) type 3 XT beads suspension (IBA Lifesciences) for 30 min. The beads were then washed three times with binding buffer, and bound proteins were eluted from MagStrep type 3 XT beads with 22.5 mM biotin for 25 min. Supernatant containing the eluted protein was separated from MagStrep beads, and incubated with 10 μL Co2+ DYNABEAD® (ThermoFisher Scientific, Waltham, MA) suspension for 30 min to bind SARM1-TIR proteins via the His tag. The beads were then washed at least two times with binding buffer and resuspended in 100 μL of binding buffer for NADase assay.
Ten microliters of purified SARM1-TIR laden beads were incubated with 5 μM NAD+ in reaction buffer (92.4 mM NaCl and 0.64×PBS). Reactions were carried out at 25° C. for the indicated amount of time and stopped by addition of 1M of perchloric acid (HClO4) and placing the tube on ice. NAD+ metabolites were extracted using HClO4/K2CO3 method and quantified by HPLC (see metabolite measurement below). For LC-MS/MS analysis, the extraction was performed using 50% methanol in distilled water and chloroform (see LC-MS/MS metabolite measurement below). […] Select potent inhibitors (622608, 622689) identified from SARM1 SAM-TIR lysate screen were added to the reaction at 5 μM. NAD normalized to control at 0 min.
Metabolites were isolated from enzyme reaction mixture by extracting with 1M HClO4, then neutralized with 3M K2CO3, and followed by separation by centrifugation. The supernatant (90 μL) containing the extracted metabolites was mixed with 0.5M Potassium Phosphate buffer (10 μL) and metabolites were analyzed by HPLC (Nexera X2) with KINETEX® (100×3 mm, 2.6 μm; PHENOMENEX®) column and metabolites are monitored with absorbance at 254 nm. Internal standards for NAD+, Nicotinamide (Nam), ADP Ribose (ADPR) were used to generate standard curves for quantification of the respective compounds. The levels for each compound in each experimental sample was normalized to the 0 min time point that was analyzed concurrently.
These analogs were tested using an assay that makes use of a bacterially-expressed tagged version of the SARM1 TIR fragment, as described in Example 2. Displaying this artificial SARM1 TIR domain on a solid surface (i.e. affinity beads) generates an active NAD+ cleavage enzyme.

DRG neurons = assay: In vitro axon degeneration assay after axotomy (degeneration index); type: cell-based, mouse
Description: Mouse dorsal root ganglion (DRG) were dissected from embryonic days 13.5 CD1 mouse embryo (˜50 ganglion per embryo) and incubated with 0.05% Trypsin solution containing 0.02% EDTA (Gibco) at 37° C. for 15 min. Then cell suspensions are triturated by gentle pipetting and washed 3 times with DRG growth medium (Neurobasal medium (Gibco) containing 2% B27 (Invitrogen), 100 ng/ml 2.5S NGF (Harlan Bioproduts), 1 μM uridine (Sigma), 1 μM 5-fluoro-2′-deoxyuridine (Sigma), penicillin, and streptomycin). Cells were suspended in DRG growth medium at a ratio of 100 μl medium/50 DRGs. The cell density of these suspensions was ˜7×10^6 cells/ml. Cell suspension (10 μl) was placed in the center of the well using 24-well tissue culture plates (Corning) coated with poly-D-Lysine (0.1 mg/ml; Sigma) and laminin (3 μg/ml; Invitrogen). […]
Axonal degeneration was induced by axotomy or by the addition of vincristine (0.04 μM) using DRG drop cultures in 96 well at DIV 6. […] Axon degeneration was quantified using degeneration index (DI) calculated using ImageJ (NIH, Sasaki et al., 2009, J. Neurosci., […]: 5525-5535). […] The DI was calculated from axon images from the same fields before (0 hour) and after (9-72 hours) axotomy. […] Axon degeneration was monitored by imaging axons before injury, and various time points after axotomy.

SARM1 TIR [3] = target: T1, SARM1 TIR; assay: In vitro NADase assay with SARM1-TIR complexes purified from NRK1-HEK293T cells, substrate specificity; type: biochemical
Description: Approximately 10 million cells were plated and transfected the next day with 15 μg of StrepTag SARM1-TIR construct DNA using X-tremeGENE™ 9 reagent (Sigma-Aldrich, St. Louis MO). […] After 2 days the cells were harvested and lysed by sonication in binding buffer (50 mM Sodium Phosphate buffer pH 8, 300 mM Sodium Chloride, 0.01% Tween-20, protease inhibitor tablets). For single step affinity purification, the whole cell lysates were incubated with 20 μL MagStrep (Strep-Tactin) type 3 XT beads suspension (IBA Lifesciences) for 30 min. The beads were then washed three times with binding buffer and resuspended in 100 μL of binding buffer for enzymatic assays and other downstream applications.
Ten microliters of beads incubated with the indicated cell lysate were incubated with 5 μM NAD in reaction buffer (92.4 mM NaCl and 0.64×PBS). […] NAD+ metabolites were extracted using HClO4/K2CO3 method and quantified by HPLC (see HPLC for metabolite measurement). […]
Metabolites were isolated from enzyme reaction mixture by extracting with 1M HClO4, then neutralized with 3M K2CO3, and followed by separation by centrifugation. The supernatant (90 μL) containing the extracted metabolites was mixed with 0.5M Potassium Phosphate buffer (10 μL) and metabolites were analyzed by HPLC (Nexera X2) with Kinetex (100×3 mm, 2.6 μm; Phenomenex) column. […]
Target sequence in this assay (Q6SZW1 561-724): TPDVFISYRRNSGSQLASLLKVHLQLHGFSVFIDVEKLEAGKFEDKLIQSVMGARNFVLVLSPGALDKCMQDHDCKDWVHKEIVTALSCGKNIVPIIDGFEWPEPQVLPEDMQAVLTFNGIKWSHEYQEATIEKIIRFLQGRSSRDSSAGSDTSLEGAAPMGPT

inhibition of SARM1-TIR NADase activity (SARM1 TIR [1]): did not inhibit
SMILES: Nc1ncnc2c1ncn2[C@@H]1O[C@H](COP(=O)(O)OP(=O)(O)OC[C@H]2OC(O)[C@H](O)[C@@H]2O)[C@@H](O)[C@H]1O (stereo partly drawn) [ADPR, ADP Ribose]

SMILES: Br.CN(C)c1nc(=NCc2ccco2)ss1 [NSC622608]
IC50 (SARM1 SAM-TIR lysate): ~150 nM
inhibition of NADase activity of purified SARM1 TIR (SARM1 TIR [2]): inhibit NADase activity of purified SARM1 TIR
dose dependence of inhibition of axon degeneration (DRG neurons; 0.05 to 5 μM, added 30 min before axotomy): dose dependent inhibition of axon degeneration
protection from axon degeneration (degeneration index) (DRG neurons; 24 h after axotomy): significant protection

SMILES: Nc1ncnc2c1ncn2[C@@H]1O[C@H](COP(=O)(O)OP(=O)(O)OC[C@H]2O[C@@H]([n+]3cccc(C(=O)O)c3)[C@H](O)[C@@H]2O)[C@@H](O)[C@H]1O [NaAD, Nicotinic Acid Adenine Dinucleotide]
degradation by wild type SARM1-TIR complexes (substrate specificity) (SARM1 TIR [3]): do not degrade
